Data on one molecule can be found in publication PMC6222558, “Synthesis and Evolution of Berberine Derivatives as a New Class of Antiviral Agents against Enterovirus 71 through the MEK/ERK Pathway and Autophagy” (Molecules : A Journal of Synthetic Chemistry and Natural …, 2018).

pIC50: −log10 of the molar value.

The test system of one data set is Vero cells. As to the kind of experiment: Cytotoxicity assay (CCK) in Vero cells. The class given is cell-based, African green monkey. In outline: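 Vero cells seeded at 3 × 10^4 cells/well were exposed overnight-plated to a range of compound concentrations in duplicate for 48 h. Viability was measured by CCK at 450 nm. TC50 is the concentration giving 50% growth inhibition versus controls, calculated by the Reed and Muench method.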

In data set [1] the test system is EV71 JS-52 strain (genotype C4). As to the kind of experiment: CPE inhibition assay for anti-EV71, JS-52 strain. Type of data set: cell-based, enterovirus 71 (EV71). The note with it: Enterovirus A, EV71; Vero cells; CPE; calculated on the organic part; n = 3; read-out: JS-52 Strain IC50. An outline of the steps:
(§1)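 Vero cells infected with 100 × TCID50 EV71 for 1 h at 37 °C in serum-free medium, unbound virus removed, then compounds added for 72 h. IC50 from inhibition of virus-induced CPE; TC50 as concentration giving 50% CPE at 72 h, with selectivity index; crystal violet staining for imaging.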

For data set [2], the system named is EV71 BrCr strain (VR-1775, genotype A). Put plainly: CPE inhibition assay for anti-EV71, BrCr strain. Type of data set: cell-based, enterovirus 71 (EV71). The note with it: Enterovirus A, EV71; Vero cells; CPE; calculated on the organic part; n = 3; read-out: BrCr Strain IC50. In outline: as §1
For another data set, the system named is EV71-induced CPE. Put plainly: CPE assay with microscopy and crystal violet staining. Type of data set: cell-based, enterovirus 71 (EV71). The note with it: 20 μM; Vero cells; better than that of BBR. The procedure:
Furthermore, microscopy and crystal violet staining was used to further investigation the anti-EV71 effect of 2d with CPE (cytopathic effect) assay.
The anti-EV71 activities of all tested compounds were detected by the virus-induced CPE assay. Briefly, cells (3 × 10^4 cells/well) were plated into 96-well culture plates and incubated for 16 h. Then, remove the medium and infected cells with EV71 of 100 × TCID50 (50% tissue culture infective doses) in serum-free medium for 1 h at 37 °C. After that, the unbound viruses were removed and various concentrations of tested compounds were supplemented for incubation of another 72 h. […] TC50 defined as the concentration that leads to the 50% of CPE which determined by the same method in 72 h. In addition, the cells were stained the cells were colored with 0.5% crystal violet in 20% ethanol for 15 min at room temperature and the cells were imaged after rinsed with PBS.
Figure 2 The anti-EV71 effect of compound 2d in Vero cells with BBR as a positive control. (A) 2d reduced the EV71-induced CPE. Cells were examined using a microscopy (×40); (B) 2d reduced the EV71-induced CPE. Cells were examined using crystal violet staining; (C) 2d reduced the expression of EV71 VP1 RNA by one-step qRT-PCR assay. ** p < 0.001 * p < 0.05; (D) 2d reduced the expression of EV71 VP1 protein by western blot assay.

The test system of data set [3] is EV71-induced autophagy (AKT, JNK, PI3KIII, LC3II, Beclin-1). As to the kind of experiment: Western blot of autophagy proteins in EV71-infected Vero cells. Type of data set: cell-based, African green monkey. The note with it: EV71 H, MOI = 0.1; 24 h treatment. An excerpt:
EV71 infection triggers autophagy, which provides a support for EV71 replication. Both JNK and PI3KIII proteins as upstream activators, play important roles in regulating autophagy, and inhibition of corresponding signaling pathway could down-regulate autophagy. Otherwise, AKT, as an inhibitor of autophagy factor, could inhibit autophagy with its activation. To further understand whether 2d still affected autophagy after structure modification, the inhibition of activation AKT and phosphorylation of JNK and PI3KIII proteins were also carried out using BBR as a reference.
Cells were lysed in the M-PER mammalian protein extraction reagent (Thermo, Rockford, IL, USA) containing halt protease inhibitor single-use cocktail (Thermo). The protein concentration was determined by BCA Protein Assay Kit (Thermo). Equal amount of samples (15 μg proteins) were denatured and applied to sodium dodecyl sulfate-polyacrylamide gel electrophoresis (SDS-PAGE), and then electrophoresis products were transferred to a polyvinylidenefluoride (PVDF) film and blocked by 5% (w/v) milk or BSA at room temperature. An hour later, PVDF membranes were incubated at room temperature with specific primary antibody. After a standard washing, membranes were incubated with horse radish peroxidase (HRP)-labeled secondary antibody. The signals were detected using ECL detection kit (GE Healthcare Life Sciences, Pittsburgh, PA, USA). The primary antibodies used in the experiment included β-actin, p-p44/p42 MAPK, p44/p42 MAPK, p-MEK, MEK, p-JNK, JNK, p-AKT, AKT, PI3KIII, LC3B, Beclin-1 (Cell Signaling Technology, Danvers, MA, USA), and EV71-VP1 (Abnova, Taibei, China). HRP-labeled secondary antibodies included goat anti-rabbit and anti-mouse HRP-labeled antibodies (Cell Signaling Technology).
Figure 4 Compound 2d inhibits EV71-induced autophagy. Vero cells were mock-infected or infected with EV71 (H, MOI = 0.1) for 1 h. The cells were then treated with compound 2d and BBR for 24 h. The cells were harvested and proteins were examined by western blot.

The pIC50 is the IC50 on a negative log10 scale, so that one unit is a factor of ten. Consider `COc1ccc2cc3[n+](cc2c1OCC(=O)OCc1ccccc1)CCc1cc2c(cc1-3)OCO2` [2d, 2,3-Methylenedioxy-9-benzyloxyformylmethylenoxy-10-methoxyprotoberberine chloride], for which, in the data set on Vero cells, the “cytotoxicity, in words” value was “lower cytotoxicity”. In addition, the “TC50 (median toxic concentration)” value with Vero cells (African green monkey, 48 h) is 82.8 µM. In data set [1], the pIC50 is 5.15. In data set [2], the pIC50 is 5.07. Besides, the “reduction of EV71-induced CPE” value in the data set with EV71-induced CPE is reported as “significantly reduce the EV71-induced CPE”. Besides, in data set [3], the AKT activation result was “activate AKT”; the “LC3II (marker for autophagy)” value is listed as “decreased”; the “expression of Beclin-1” value is “could not affect the expression of Beclin-1”; the “phosphorylation of JNK and PI3KIII proteins” value was “inhibit the phosphorylation of JNK and PI3KIII proteins”.
